Laboratory results from patent US6472391B2, “Nitrogen-containing heterocyclic compounds” (Millennium Pharmaceuticals, Inc., priority 1996, dated 2002).

| melting point | Compound |
| --- | --- |
| 86 to 88 °C | COc1cc2ncnc(N3CCCN(C(=S)NCc4ccccc4)CC3)c2cc1OC [Compound 436, N-Benzyl-4-(6,7-dimethoxy-4-quinazolinyl)-1-homopiperazinethiocarboxamide] |
| 239 to 240 °C | COc1cccc2c(N3CCN(C(=O)Nc4ccc(C(C)=O)cc4)CC3)ncnc12 [Compound 328, N-(4-Acetylphenyl)-4-(8-methoxy-4-quinazolinyl)-1-piperazinecarboxamide] |
| 74 to 75 °C | O=C(Nc1ccc(Oc2ccccc2)cc1)N1CCN(c2ncnc3ccccc23)CC1 [Compound 104, N-(4-Phenoxyphenyl)-4-(4-quinazolinyl)-1-piperazinecarboxamide] |
| 108 to 109 °C | COc1cccc2c(N3CCN(C(=O)Nc4ccc(Oc5ccccc5)cc4)CC3)ncnc12 [Compound 327, 4-(8-Methoxy-4-quinazolinyl)-N-(4-phenoxyphenyl)-1-piperazinecarboxamide] |
| 168 to 169 °C | CCOc1cc2ncnc(N3CCN(C(=S)NCc4ccccc4)CC3)c2cc1OC [Compound 337, N-Benzyl-4-(7-ethoxy-6-methoxy-4-quinazolinyl)-1-piperazinethiocarboxamide] |
| 131 to 132 °C | COc1cc2ncnc(N3CCN(C(=S)NCc4ccc(OC(F)(F)F)cc4)CC3)c2cc1OC [Compound 204, 4-(6,7-Dimethoxy-4-quinazolinyl)-N-(4-trifluoromethoxybenzyl)-1-piperazinethiocarboxamide] |
| 195 to 196 °C | O=C(Nc1ccc(Oc2ccccc2)cc1)N1CCN(c2ncnc3c(Cl)cc(Cl)cc23)CC1 [Compound 377, 4-(6,8-Dichloro-4-quinazolinyl)-N-(4-phenoxyphenyl)-1-piperazinecarboxamide] |
| 193 to 194 °C | S=C(NCc1cccnc1)N1CCN(c2ncnc3ccccc23)CC1 [Compound 286, N-(3-Picolyl)-4-(4-quinazolinyl)-1-piperazinethiocarboxamide] |
| 196 to 197 °C | COc1ccc(NC(=S)N2CCN(c3ncnc4cc(OC)c(OC)cc34)CC2)cc1 [Compound 196, 4-(6,7-Dimethoxy-4-quinazolinyl)-N-(4-methoxyphenyl)-1-piperazinethiocarboxamide] |
| 205 to 206 °C | COc1cc2c(N3CCN(C(=S)NCc4cccnc4)CC3)ncnc2cc1OC(C)C [Compound 342, 4-(7-Isopropoxy-6-methoxy-4-quinazolinyl)-N-(3-picolyl)-1-piperazinethiocarboxamide] |
| 109 to 111 °C | COc1cc2ncnc(N3CCN(C(=O)Nc4ccc(C(C)(C)C)cc4)CC3)c2cc1OC [Compound 156, N-(4-tert-Butylphenyl)-4-(6,7-dimethoxy-4-quinazolinyl)-1-piperazinecarboxamide] |
| 243 to 244 °C | COc1cc2ncnc(N3CCCN(C(=O)Nc4ccc([N+](=O)[O-])cc4)CC3)c2cc1OC [Compound 112, 4-(6,7-Dimethoxy-4-quinazolinyl)-N-(4-nitrophenyl)-1-homopiperazinecarboxamide] |
| 208 to 210 °C | COc1cc2ncnc(N3CCN(C(=S)Nc4ccccn4)CC3)c2cc1OC [Compound 262, 4-(6,7-Dimethoxy-4-quinazolinyl)-N-(2-pyridyl)-1-piperazinethiocarboxamide] |
| 214 to 215 °C | O=C(Nc1ccc(Oc2ccccc2)cc1)N1CCN(c2ccnc3c(C(F)(F)F)cccc23)CC1 [Compound 411, N-(4-Phenoxyphenyl)-4-(8-trifluoromethyl-4-quinolyl)-1-piperazinecarboxamide] |
| 267 to 269 °C | CC(C)c1ccc(NC(=O)N2CCN(c3ncnc4c(I)cc(I)cc34)CC2)cc1 [Compound 379, 4-(6,8-Diiodo-4-quinazolinyl)-N-(4-isopropylphenyl)-1-piperazinecarboxamide] |
| 177 to 178 °C | COc1cc2ncnc(N3CCN(C(=S)NCc4ccc(N(C)C)cc4)CC3)c2cc1OC [Compound 224, 4-(6,7-Dimethoxy-4-quinazolinyl)-N-(4-dimethylaminobenzyl)-1-piperazinethiocarboxamide] |
| 184 to 185 °C | CC(=O)c1ccc(NC(=O)N2CCN(c3ncnc4ccc(F)cc34)CC2)cc1 [Compound 298, N-(4-Acetylphenyl)-4-(6-fluoro-4-quinazolinyl)-1-piperazinecarboxamide] |
| 168 to 170 °C | COc1cc2ncnc(N3CCN(C(=O)NCc4cccs4)CC3)c2cc1OC [Compound 259, 4-(6,7-Dimethoxy-4-quinazolinyl)-N-(2-thienylmethyl)-1-piperazinecarboxamide] |
| 248 to 251 °C | CCn1c(=O)[nH]c2cc3c(N4CCN(C(=O)Nc5ccc(Oc6ccccc6)cc5)CC4)ncnc3cc21 [Compound 123, 4-(3-Ethyl-1,3-dihydro-2-oxo-2H-imidazo[4,5-g]quinazolin-8-yl)-N-(4-phenoxyphenyl)-1-piperazinecarboxamide] |
| 112 to 114 °C | COc1cc2ncnc(N3CCN(C(=S)NCCCCc4ccccc4)CC3)c2cc1OC [Compound 7, 4-(6,7-Dimethoxy-4-quinazolinyl)-N-(4-phenylbutyl)-1-piperazinethiocarboxamide] |

| melting point | Compound |
| --- | --- |
| 178 to 179 °C | COc1cc2ncnc(N3CCN(C(=O)NCc4ccsc4)CC3)c2cc1OC [Compound 258, 4-(6,7-Dimethoxy-4-quinazolinyl)-N-(3-thienylmethyl)-1-piperazinecarboxamide] |
| 83 to 84 °C | COc1cc2c(N3CCN(C(=O)Nc4ccc(Oc5ccccc5)cc4)CC3)ncnc2c(OC)c1OC [Compound 108, N-(4-Phenoxyphenyl)-4-(6,7,8-trimethoxy-4-quinazolinyl)-1-piperazinecarboxamide] |
| 177 to 178 °C | Cc1ccc2c(N3CCN(C(=S)NCc4ccccc4)CC3)ncnc2c1 [Compound 314, N-Benzyl-4-(7-methyl-4-quinazolinyl)-1-piperazinethiocarboxamide] |
| 157 to 160 °C | COc1cc2c(N3CCN(C(=O)Nc4ccc(Oc5ccccc5)cc4)CC3)ncnc2cc1OC(C)C [Compound 339, 4-(7-Isopropoxy-6-methoxy-4-quinazolinyl)-N-(4-phenoxyphenyl)-1-piperazinecarboxamide] |
| 217 to 218 °C | COc1cc2ncnc(N3CCN(C(=O)Nc4ccccc4[N+](=O)[O-])CC3)c2cc1OC [Compound 75, 4-(6,7-Dimethoxy-4-quinazolinyl)-N-(2-nitrophenyl)-1-piperazinecarboxamide] |
| 156 to 157 °C | COc1cc2nc(-c3ccccc3)nc(N3CCN(C(=O)Nc4ccc([N+](=O)[O-])cc4)CC3)c2cc1OC [Compound 111, 4-(6,7-Dimethoxy-2-phenyl-4-quinazolinyl)-N-(4-nitrophenyl)-1-piperazinecarboxamide] |
| 202 to 207 °C | COc1cc2ncnc(N3CCN(C(=O)Nc4c(Cl)cccc4Cl)CC3)c2cc1OC [Compound 52, N-(2,6-Dichlorophenyl)-4-(6,7-dimethoxy-4-quinazolinyl)-1-piperazinecarboxamide] |
| 174 to 175 °C | COc1cc2ncnc(N3CCN(C(=O)NCCc4ccc(Br)cc4)CC3)c2cc1OC [Compound 120, N-[2-(4-Bromophenyl)ethyl]-4-(6,7-dimethoxy-4-quinazolinyl)-1-piperazinecarboxamide] |
| 188 to 189 °C | COc1cc2ncnc(N3CCN(C(=O)NCc4cccnc4)CC3)c2cc1OC [Compound 266, 4-(6,7-Dimethoxy-4-quinazolinyl)-N-(3-picolyl)-1-piperazinecarboxamide] |
| 195 to 197 °C | COc1cc2ccnc(N3CCN(C(=S)NCc4cccnc4)CC3)c2cc1OC.Cl.Cl |
| 207 to 208 °C | CCn1c(=O)n(C)c2cc3c(N4CCN(C(=S)NCc5ccccc5)CC4)ncnc3cc21 [Compound 388, N-Benzyl-4-(1,3-dihydro-3-ethyl-1-methyl-2-oxo-2H-imidazo[4,5-g]quinazolin-8-yl)-1-piperazinethiocarboxamide] |
| 163 to 164 °C | CCOC(=O)c1cnc2cc(OC)c(OC)cc2c1N1CCN(C(=O)Nc2ccc(Oc3ccccc3)cc2)CC1 [Compound 408, 4-(6,7-Dimethoxy-3-ethoxycarbonyl-4-quinolyl)-N-(4-phenoxyphenyl)-1-piperazinecarboxamide] |
| 172 to 180 °C | COc1cc2ncnc(N3CCN(C(=S)Nc4ccc(S(N)(=O)=O)cc4)CC3)c2cc1OC [Compound 93, 4-(6,7-Dimethoxy-4-quinazolinyl)-N-(4-sulfamoylphenyl)-1-piperazinethiocarboxamide] |
| 247 to 248 °C | COc1cc2ccnc(N3CCN(C(=O)Nc4ccc([N+](=O)[O-])cc4)CC3)c2cc1OC [Compound 113, 4-(6,7-Dimethoxy-1-isoquinolyl)-N-(4-nitrophenyl)-1-piperazinecarboxamide] |
| 207 to 208 °C | CC(=O)c1ccc(NC(=O)N2CCN(c3ncnc4ccc(Cl)cc34)CC2)cc1 [Compound 302, N-(4-Acetylphenyl)-4-(6-chloro-4-quinazolinyl)-1-piperazinecarboxamide] |
| 128 to 129 °C | COc1cc2ncnc(N3CCN(C(=S)NC(c4ccccc4)c4ccccc4)CC3)c2cc1OC [Compound 133, 4-(6,7-Dimethoxy-4-quinazolinyl)-N-diphenylmethyl-1-piperazinethiocarboxamide] |
| 213 to 215 °C | COc1cc2ncnc(N3CCN(C(=O)Nc4ccc(CN(C)C)cc4)CC3)c2cc1OC [Compound 227, 4-(6,7-Dimethoxy-4-quinazolinyl)-N-[4-(N,N-dimethylaminomethyl)phenyl]-1-piperazinecarboxamide] |
| 184 to 185 °C | COc1cc2ncnc(N3CCN(C(=O)NCCc4cccs4)CC3)c2cc1OC [Compound 96, 4-(6,7-Dimethoxy-4-quinazolinyl)-N-[2-(2-thienyl)ethyl]-1-piperazinecarboxamide] |
| 181 to 182 °C | CC(C)Oc1ccc2c(N3CCN(C(=O)Nc4ccc(Oc5ccccc5)cc4)CC3)ncnc2c1 [Compound 318, 4-(7-Isopropoxy-4-quinazolinyl)-N-(4-phenoxyphenyl)-1-piperazinecarboxamide] |
| 221 to 224 °C | COc1cc2ncnc(N3CCN(C(=S)Nc4ccc([N+](=O)[O-])cc4)CC3)c2cc1OC [Compound 80, 4-(6,7-Dimethoxy-4-quinazolinyl)-N-(4-nitrophenyl)-1-piperazinethiocarboxamide] |
